Experimental data: patent US20030187028A1, “Medicament for viral diseases” (priority 2000, published 2003)

What was measured:
[1] = tested on: hepatitis B virus-producing HepG2.2.15 cells; experiment: Antiviral test: reduction of HBV DNA in HepG2.2.15 cells (dot-blot hybridization); type: cell-based; details: HepG2.2.15, 96 h
Protocol: The antiviral action of the compounds according to the invention was investigated by methods based on those described by M. A. Sells et al., Proc. Natl. Acad. Sci. 84, 1005-1009 (1987) and B. E. Korba et al., Antiviral Research 19, 55-70 (1992).
The antiviral tests were carried out in 96-well microtitre plates. The first vertical row of the plate received only growth medium and HepG2.2.15 cells. It served as virus control.
Stock solutions of the test compounds (50 mM) were initially dissolved in DMSO, and further dilutions were prepared in the HepG2.2.15 growth medium. The compounds according to the invention were usually pipetted in a test concentration of 100 μM (1st test concentration) in each case into the second vertical test row of the microtitre plate and subsequently diluted in twofold steps 2^10 times in growth medium+2% by weight fetal calf serum (volume 25 μl).
Each well of the microtitre plate then contained 225 μl of HepG2.2.15 cell suspension (5×10^4 cells/ml) in growth medium+2% by weight of fetal calf serum.
The test mixture was incubated at 37° C. and 5% CO2 (v/v) for 4 days.
The supernatant was then aspirated off and discarded, and the wells received 225 μl of freshly prepared growth medium. The compounds according to the invention were each added anew as 10-fold concentrated solution in a volume of 25 μl. The mixtures were incubated for a further 4 days.
The supernatants/cells were then harvested and sucked by means of a vacuum onto 96-well dot-blot chambers covered with a nylon membrane (in accordance with the manufacturer's information).
After the supernatants or cells had been transferred to the nylon membrane of the blot apparatus (see above), the supernatants of the HepG2.2.15 cells were denatured (1.5 M NaCl/0.5 N NaOH), neutralized (3M NaCl/0.5M Tris HCl, pH 7.5) and washed (2×SSC). The DNA was then baked onto the membrane by incubating the filters at 120° C. for 2-4 hours.
Detection of the viral DNA from the treated HepG2.2.15 cells on the nylon filters was easily carried out with non-radioactive, digoxigenin-labelled hepatitis B-specific DNA probes, each of which was labelled with digoxigenin, purified and employed for the hybridization in accordance with the manufacturer's information.
The prehybridization and hybridization took place in 5×SSC, 1× blocking reagent, 0.1% by weight N-lauroylsarcosine, 0.02% by weight SDS and 100 μg of herring sperm DNA. The prehybridization took place at 60° C. for 30 minutes, and the specific hybridization with 20 to 40 ng/ml of the digoxigenized, denatured HBV-specific DNA took place at 60° C. for 14 hours. The filters were then washed.
The immunological detection of the digoxigenin-labelled DNA took place in accordance with the manufacturer's information:
The filters were washed and prehybridized in a blocking reagent (in accordance with the manufacturer's information). Hybridization was then carried out with an anti-DIG antibody coupled to alkaline phosphatase for 30 minutes. After a washing step, the substrate of alkaline phosphatase, CSPD, was added, incubated with the filters for 5 minutes, then packed in plastic film and incubated at 37° C. for a further 15 minutes.
The chemiluminescence of the hepatitis B-specific DNA signals was visualized by exposing the filters to an X-ray film (incubation depending on signal strength: 10 minutes to 2 hours).
The half-maximum inhibitory concentration (IC-50, 50% inhibitory concentration) was determined as the concentration at which the hepatitis B-specific band was reduced by the compound according to the invention by 50% compared with an untreated sample.

HepG2.2.15 cells = experiment: Cytotoxicity determination in HepG2.2.15 cells; type: cell-based; details: 50% cytotoxicity
Text: Before harvesting the supernatants and/or cells to determine the antiviral effect, the HepG2.2.15 cells were examined under the light microscope or by means of biochemical detection methods (for example Alamar Blue stain or Trypan Blue stain) for cytotoxic changes.
Substance-induced cytotoxic or cytostatic changes in the HepG2.2.15 cells were detected, for example, under the light microscope as changes in cell morphology. Such substance-induced changes in the HepG2.2.15 cells compared with untreated cells were visible, for example, as cytolysis, vacuolation or altered cell morphology.
The tolerability of some of the compounds according to the invention was additionally tested on other host cells such as, for example, HeLa cells, primary human peripheral blood cells or transformed cell lines such as H-9 cells.
As a rule, the compounds according to the invention were tolerated up to concentrations of 10 μM (Tox. −50).

Structure (SMILES) | IC50 [1] [µM] | Tox-50 (HepG2.2.15 cells) [μM/l]
Cc1cc(NC(=O)c2c(C)noc2C)ccc1F [Example 2, N-(4-Fluoro-3-methylphenyl)-3,5-dimethylisoxazole-4-carboxamide] | 0.2 | >100
CCc1onc(C)c1C(=O)Nc1ccc(F)c(Cl)c1 [Example 12] | 0.5 | >100
Cc1cc(NC(=O)c2c(C)noc2C(F)(F)F)ccc1F [Example 16] | 0.75 | >100
CCCc1onc(C)c1C(=O)Nc1cccc(C)c1 [Example 21] | 1 | >100
Cc1cccc(NC(=S)c2c(C)noc2C)c1 [Example 29] | 4 | >100
Cc1oncc1C(=O)Nc1ccc(C(F)(F)F)cc1 [Leflunamide, N-(4-trifluoromethylphenyl)-5-methylisoxazole-4-carboxamide, reference compound] | > 70 | 70
